Measured values taken from US20070224593A1 (priority 2005, published 2007).

Experiments:
PrP-d = PrP-d (Ovis aries, UniProt P23907); format: binding; conditions: same section of unfixed lymphoid tissue from scrapie positive sheep
[1] = molecular target: non-amyloid or pre-amyloid PrP-d (Ovis aries, UniProt P23907); format: binding; conditions: such compounds were previously believed to associate only with classical amyloid PrP-d isoforms
[2] = molecular target: scrapie-form prion protein (PrP-d) (Ovis aries, UniProt P23907); conditions: retropharyngeal lymph nodes of TSE+ sheep, ex vivo; 100 μM, 10 min, RT; λex approx. 370 nm, λem approx. 450 nm; TSE status confirmed by PrP-d immunohistochemistry
scrapie-form prion protein (PrP-d), sequence (P23907 25-233 limits assumed): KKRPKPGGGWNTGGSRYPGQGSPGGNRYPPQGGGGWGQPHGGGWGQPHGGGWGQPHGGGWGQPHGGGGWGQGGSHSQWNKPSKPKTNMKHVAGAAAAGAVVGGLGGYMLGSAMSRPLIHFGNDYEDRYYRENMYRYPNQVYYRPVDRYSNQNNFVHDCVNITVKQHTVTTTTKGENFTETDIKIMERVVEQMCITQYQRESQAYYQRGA

non-amyloid or pre-amyloid PrP-d, sequence (P23907 25-233 limits assumed): as above
PrP-d, sequence (P23907 25-233 limits assumed): as above

With `O=C(O)c1cc(C=Cc2ccc(C=Cc3ccc(O)c(C(=O)O)c3)cc2)ccc1O` [X-34, 1,4-bis(3-carboxy-4-hydroxyphenylethenyl)-benzene] the “Correlation of probe imaging with antibody binding (immunohistochemistry, AEC)” value (PrP-d) was “colocalization of the X34 binding and the antibody binding” and the “Binding to non-amyloid or pre-amyloid PrP-d” value [1] was “Binding”.
With “1,4-bis(4′-hydroxystyrl)-2-methoxybenzene [Me-X04]” the “Binding to non-amyloid or pre-amyloid PrP-d” value [1] was “Binding” and the “PrP-d detection and visualization by probe fluorescence” value [2] was “detected and visualized”.
